Patent publication US9717737B2, “Vacuolin-1 as an inhibitor of autophagy and endosomal trafficking and the use thereof for inhibiting tumor progression” (The University of Hong Kong, priority 2014, dated 2017)

Test system: RFP-GFP-LC3 expressing HeLa cells
Assay: RFP-GFP-LC3 (tfLC3) fluorescence image-based autophagy assay
Format: cell-based
Source text: Prompted by the fact that many available autophagy chemical modulators lack either potency or specificity (Kimura et al., 2013), a fluorescence image-based assay was set up to screen small molecules affecting autophagy. HeLa cells, an autophagy competent cell line, were infected with lentiviruses carrying expression cassettes that encode RFP-GFP-LC3 (tfLC3) (Kimura et al., 2007). Thus, the LC3-II positive autophagosomes are labeled with both GFP and RFP signals shown as yellow puncta, and after fusion with lysosomes, autolysosomes are shown as red only puncta because GFP loses its fluorescence in acidic pH.
Next, a panel of small chemicals that are commercially available and have been previously shown to affect vesicle trafficking or organelle morphology were selected and screened for their effects on autophagy regulation in tfLC3 expressing HeLa cells (data not shown).

SMILES	LC3 puncta (yellow = autophagosomes, red only = autolysosomes)
CCN(CC)CCCC(C)Nc1ccnc2cc(Cl)ccc12 (centres unmarked) [CQ, Chloroquine]	markedly induced the accumulation of yellow puncta only
CO/C1=C\C(C)=C\[C@@H](C)[C@@H](O)[C@@H](C)C/C(C)=C/C=C/[C@H](OC)[C@@H]([C@@H](C)[C@@H](O)[C@H](C)[C@@]2(O)C[C@@H](O)[C@H](C)[C@@H](C(C)C)O2)OC1=O [bafilomycin, Bafilomycin A1]	markedly induced the accumulation of yellow puncta only
